Assays:
CRBN/DDB1 = CRBN/DDB1 (Homo sapiens (Human), UniProt Q96SW2); assay: IC50 measurements for binding to CRBN/DDB1 (HTRF); details: His tagged CRBN+DDB, Cy5-labeled Thalidomide probe, one hour
Outline: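 Serially diluted compounds compete with a Cy5-labeled thalidomide tracer (60 nM) for His-tagged CRBN-DDB1 (2 nM), detected via anti-6His Tb cryptate (0.4 nM); buffer HEPES pH 7.5 with TCEP, Brij-35, NaCl, BSA. One-hour room-temperature incubation, HTRF signal read, IC50 by four-parameter curve.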

IKZF2 = IKZF2 (Homo sapiens (Human), UniProt Q96SW2+Q9UKS7); assay: In vitro IKZF2 HiBit Assay (HEK293T Flp-in-HiBiT cells); format: cell-based; details: HEK293T Flp-in-HiBiT cells, 6 hrs incubation; for DC50: read-out: IKZF2 HiBit DC50; for Dmax: HEK-293T, read-out: IKZF2 HiBit Dmax (%)
Sequence of IKZF2 (Q9UKS7 whole entry): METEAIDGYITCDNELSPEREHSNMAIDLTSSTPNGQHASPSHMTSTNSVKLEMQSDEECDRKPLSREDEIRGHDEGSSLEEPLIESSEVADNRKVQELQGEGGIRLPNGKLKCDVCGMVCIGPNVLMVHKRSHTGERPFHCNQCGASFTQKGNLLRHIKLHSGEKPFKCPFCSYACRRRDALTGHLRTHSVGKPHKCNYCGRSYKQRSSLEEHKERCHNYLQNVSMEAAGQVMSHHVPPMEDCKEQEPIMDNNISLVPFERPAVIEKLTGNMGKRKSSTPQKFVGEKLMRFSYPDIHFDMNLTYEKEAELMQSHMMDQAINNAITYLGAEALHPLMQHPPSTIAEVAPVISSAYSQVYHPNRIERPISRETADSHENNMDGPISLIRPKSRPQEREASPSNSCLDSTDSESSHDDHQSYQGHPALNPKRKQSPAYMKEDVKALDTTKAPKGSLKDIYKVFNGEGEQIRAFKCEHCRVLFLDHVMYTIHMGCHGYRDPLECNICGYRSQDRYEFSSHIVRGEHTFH
Sequence of IKZF2 (Q96SW2 whole entry): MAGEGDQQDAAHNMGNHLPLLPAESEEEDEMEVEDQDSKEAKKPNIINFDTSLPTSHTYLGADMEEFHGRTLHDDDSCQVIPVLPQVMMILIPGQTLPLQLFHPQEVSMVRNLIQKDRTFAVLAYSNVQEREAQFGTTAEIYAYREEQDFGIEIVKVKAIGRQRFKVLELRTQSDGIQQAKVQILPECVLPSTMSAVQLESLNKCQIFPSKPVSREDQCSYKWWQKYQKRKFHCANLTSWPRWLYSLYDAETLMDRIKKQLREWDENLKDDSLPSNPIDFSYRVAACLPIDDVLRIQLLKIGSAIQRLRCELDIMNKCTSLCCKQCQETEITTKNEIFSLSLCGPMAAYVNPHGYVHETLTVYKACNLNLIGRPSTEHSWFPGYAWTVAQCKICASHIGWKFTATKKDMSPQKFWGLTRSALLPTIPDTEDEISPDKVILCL
Sequence of IKZF2 (Q16531 2-1140 partner): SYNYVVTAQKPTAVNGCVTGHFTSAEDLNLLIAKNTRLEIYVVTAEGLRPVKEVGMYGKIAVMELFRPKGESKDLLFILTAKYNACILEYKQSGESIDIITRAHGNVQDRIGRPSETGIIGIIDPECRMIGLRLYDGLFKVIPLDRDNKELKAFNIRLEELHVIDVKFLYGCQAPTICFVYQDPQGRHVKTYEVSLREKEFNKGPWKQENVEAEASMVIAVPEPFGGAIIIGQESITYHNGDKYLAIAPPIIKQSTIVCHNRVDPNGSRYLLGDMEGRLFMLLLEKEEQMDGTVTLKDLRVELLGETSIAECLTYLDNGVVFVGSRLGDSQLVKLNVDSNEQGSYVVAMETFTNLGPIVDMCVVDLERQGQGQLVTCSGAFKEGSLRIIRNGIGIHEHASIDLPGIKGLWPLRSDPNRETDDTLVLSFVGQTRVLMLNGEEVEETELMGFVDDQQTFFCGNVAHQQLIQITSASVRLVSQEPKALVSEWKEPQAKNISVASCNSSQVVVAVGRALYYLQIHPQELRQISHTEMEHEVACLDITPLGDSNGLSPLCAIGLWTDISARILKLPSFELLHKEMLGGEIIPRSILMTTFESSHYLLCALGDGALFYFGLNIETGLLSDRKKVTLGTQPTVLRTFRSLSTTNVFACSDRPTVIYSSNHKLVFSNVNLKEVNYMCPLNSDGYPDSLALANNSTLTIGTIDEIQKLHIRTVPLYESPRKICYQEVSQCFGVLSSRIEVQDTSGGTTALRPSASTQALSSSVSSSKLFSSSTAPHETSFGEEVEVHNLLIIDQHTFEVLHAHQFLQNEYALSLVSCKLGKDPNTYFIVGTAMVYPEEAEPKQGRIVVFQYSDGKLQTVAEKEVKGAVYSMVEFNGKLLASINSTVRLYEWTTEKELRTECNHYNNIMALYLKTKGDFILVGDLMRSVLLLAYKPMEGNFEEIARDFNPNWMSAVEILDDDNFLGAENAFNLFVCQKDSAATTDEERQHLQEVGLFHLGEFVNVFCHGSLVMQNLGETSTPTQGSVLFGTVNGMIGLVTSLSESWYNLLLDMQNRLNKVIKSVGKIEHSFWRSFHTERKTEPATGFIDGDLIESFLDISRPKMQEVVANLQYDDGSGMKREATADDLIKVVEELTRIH
Outline: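 Remaining tagged Helios was read as lytic HiBiT/LgBiT luminescence normalized to DMSO, yielding binned DC50 and Dmax values. Treatment ran 6 h, with compounds at 11 three-fold doses diluted from 1 mM and 0.1% final DMSO. The cells were HEK293T Flp-in with CRISPR knock-in of HiBiT at the IKZF2 N-terminus.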

IKZF1 = IKZF1 (Homo sapiens (Human), UniProt Q13422+Q96SW2); assay: In vitro IKZF1 HiBit Assay (HEK293T Flp-in-HiBiT-IKZF1 stable cell line); format: cell-based; details: HEK293T Flp-in-HiBiT-IKZF1 stable cell line, 6 hrs incubation; for DC50: read-out: IKZF1 HiBit DC50; for Dmax: HEK-293T, read-out: IKZF1 HiBit Dmax (%)
Sequence of IKZF1 (Q13422 whole entry): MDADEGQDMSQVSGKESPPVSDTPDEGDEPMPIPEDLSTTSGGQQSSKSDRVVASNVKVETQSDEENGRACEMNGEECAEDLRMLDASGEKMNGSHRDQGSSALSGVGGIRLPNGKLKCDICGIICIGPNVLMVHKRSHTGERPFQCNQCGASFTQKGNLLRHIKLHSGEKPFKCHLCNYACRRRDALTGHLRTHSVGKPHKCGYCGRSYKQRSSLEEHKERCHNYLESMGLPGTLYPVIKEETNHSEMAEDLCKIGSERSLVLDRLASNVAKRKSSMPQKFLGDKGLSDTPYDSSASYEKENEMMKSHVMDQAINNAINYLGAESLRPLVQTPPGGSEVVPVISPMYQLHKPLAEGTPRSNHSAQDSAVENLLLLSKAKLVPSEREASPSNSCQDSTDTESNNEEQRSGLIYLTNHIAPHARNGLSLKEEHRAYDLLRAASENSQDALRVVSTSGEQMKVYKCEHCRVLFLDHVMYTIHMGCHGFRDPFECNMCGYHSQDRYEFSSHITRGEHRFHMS
Sequence of IKZF1 (Q96SW2 whole entry): as the sequence (Q96SW2 whole entry) above
Sequence of IKZF1 (Q16531 2-1140 partner): as the sequence (Q16531 2-1140 partner) above
Outline: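 Degradation was measured as loss of luminescence from the HiBiT-IKZF1 tag after 6 h compound treatment, with 0.1% final DMSO, in stable HEK293T Flp-in cells. Values were normalized to DMSO, giving the 50% degradation concentration and the maximal degradation range.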

Sequence of CRBN/DDB1 (Q96SW2 whole entry, species assumed): as the sequence (Q96SW2 whole entry) above
Sequence of CRBN/DDB1 (Q16531 whole entry partner, species assumed): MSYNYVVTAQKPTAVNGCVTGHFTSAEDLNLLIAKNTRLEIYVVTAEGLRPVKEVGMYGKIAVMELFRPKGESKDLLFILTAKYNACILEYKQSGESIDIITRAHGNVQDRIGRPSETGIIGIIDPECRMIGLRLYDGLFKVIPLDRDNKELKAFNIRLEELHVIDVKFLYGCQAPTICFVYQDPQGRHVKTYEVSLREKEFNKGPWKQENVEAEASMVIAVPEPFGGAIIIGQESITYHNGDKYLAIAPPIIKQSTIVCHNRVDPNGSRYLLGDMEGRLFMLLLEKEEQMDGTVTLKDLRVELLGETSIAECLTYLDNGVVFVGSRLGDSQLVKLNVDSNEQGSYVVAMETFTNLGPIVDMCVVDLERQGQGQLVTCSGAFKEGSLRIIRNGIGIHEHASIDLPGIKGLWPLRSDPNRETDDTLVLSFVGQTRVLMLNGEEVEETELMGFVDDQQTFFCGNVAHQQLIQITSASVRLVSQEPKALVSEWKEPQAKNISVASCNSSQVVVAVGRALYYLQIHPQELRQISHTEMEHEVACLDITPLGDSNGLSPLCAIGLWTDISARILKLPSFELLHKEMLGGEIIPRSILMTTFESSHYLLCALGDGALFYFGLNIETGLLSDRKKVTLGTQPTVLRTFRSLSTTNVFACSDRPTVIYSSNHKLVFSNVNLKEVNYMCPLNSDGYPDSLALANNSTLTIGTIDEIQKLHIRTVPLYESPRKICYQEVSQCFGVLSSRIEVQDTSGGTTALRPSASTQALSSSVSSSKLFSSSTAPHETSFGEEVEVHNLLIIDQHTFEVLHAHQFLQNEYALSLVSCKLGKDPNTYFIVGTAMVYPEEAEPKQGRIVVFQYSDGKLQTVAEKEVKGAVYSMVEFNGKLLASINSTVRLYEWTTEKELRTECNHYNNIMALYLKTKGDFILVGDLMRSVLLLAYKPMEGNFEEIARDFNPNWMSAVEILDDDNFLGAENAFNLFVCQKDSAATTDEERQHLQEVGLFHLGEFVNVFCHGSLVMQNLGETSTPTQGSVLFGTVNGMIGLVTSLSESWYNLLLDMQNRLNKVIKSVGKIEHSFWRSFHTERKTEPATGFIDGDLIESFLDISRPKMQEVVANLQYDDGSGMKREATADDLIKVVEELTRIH

| Compound | IC50 (CRBN/DDB1) [nM] | DC50 (IKZF2) [nM] | Dmax (IKZF2) [%] | DC50 (IKZF1) [nM] | Dmax (IKZF1) [%] |
| --- | --- | --- | --- | --- | --- |
| Cn1ccc2c(CN3CC4(CCC4)C3)cc(-c3ccc4c(c3)CN(C3CCC(=O)NC3=O)C4=O)nc21 (stereo not drawn) [Example 112, 3-(5-(4-((2-azaspiro[3.3]heptan-2-yl)methyl)-1-methyl-1H-pyrrolo[2,3-b]pyridin-6-yl)-1-oxoisoindolin-2-yl) piperidine-2,6-dione] | 100 to 500 | < 1 | > 80 | 10 to 100 | 20 to 40 |
| Cn1ccc2c(CN3CCCC3(C)C)cc(-c3ccc4c(c3)CN(C3CCC(=O)NC3=O)C4=O)nc21 (stereo not drawn) [Example 113, 3-(5-(4-((2,2-dimethylpyrrolidin-1-yl)methyl)-1-methyl-1H-pyrrolo[2,3-b]pyridin-6-yl)-1-oxoisoindolin-2-yl) piperidine-2,6-dione] | 1000 to 5000 | < 1 | 60 to 80 | 10 to 100 | 20 to 40 |
| Cn1ccc2c(N3CCCC3)cc(-c3ccc4c(c3)CN(C3CCC(=O)NC3=O)C4=O)nc21 (stereo not drawn) [Example 114, 3-(5-(1-methyl-4-(pyrrolidin-1-yl)-1H-pyrrolo[2,3-b]pyridin-6-yl)-1-oxoisoindolin-2-yl) piperidine-2,6-dione] | 1000 to 5000 | 10 to 100 | 20 to 40 | > 10000 | < 20 |
| Cn1ccc2c(CN3CCC(n4ccnc4)CC3)cc(-c3ccc4c(c3)CN(C3CCC(=O)NC3=O)C4=O)nc21 (stereo not drawn) [Example 115, 3-(5-(4-((4-(1HIimidazol-1-yl)piperidin-1-yl)methyl)-1-methyl-1H-pyrrolo[2,3-b]pyridin-6-yl)-1-oxoisoindolin-2-yl) piperidine-2,6-dione] | 500 to 1000 | 10 to 100 | 60 to 80 | > 10000 | < 20 |
| COCCn1ccc2c(CN3CCCC3)cc(-c3ccc4c(c3)CN(C3CCC(=O)NC3=O)C4=O)nc21 (stereo not drawn) [Example 118, 3-(5-(1-(2-methoxyethyl)-4-(pyrrolidin-1-ylmethyl)-1H-pyrrolo[2,3-b]pyridin-6-yl)-1-oxoisoindolin-2-yl) piperidine-2,6-dione] | 500 to 1000 | 1 to 10 | 40 to 60 | > 10000 | < 20 |
| O=C1CCC(N2Cc3cc(-c4cc(CN5CCC(O)C5)c5cc[nH]c5n4)ccc3C2=O)C(=O)N1 (stereo not drawn) [Example 120, 3-(5-(4-((3-hydroxypyrrolidin-1-yl)methyl)-1H-pyrrolo[2,3-b]pyridin-6-yl)-1-oxoisoindolin-2-yl) piperidine-2,6-dione] | 100 to 500 | 10 to 100 | > 80 | 100 to 1000 | 20 to 40 |
| O=C1CCC(N2Cc3cc(-c4cc(CN5CCCC5)c5cc[nH]c5n4)c(F)cc3C2=O)C(=O)N1 (stereo not drawn) [Example 122, 3-(6-fluoro-1-oxo-5-(4-(pyrrolidin-1-ylmethyl)-1H-pyrrolo[2,3-b]pyridin-6-yl)isoindolin-2-yl) piperidine-2,6-dione] | 1000 to 5000 | 100 to 1000 | 20 to 40 | 1 to 10 | 20 to 40 |
| CN(C)CC1CCN(Cc2cc(-c3ccc4c(c3)CN(C3CCC(=O)NC3=O)C4=O)nc3[nH]ccc23)C1 (stereo not drawn) [Example 123] | 100 to 500 | 1 to 10 | > 80 | 10 to 100 | 20 to 40 |
| CCn1ccc2nc(-c3ccc4c(c3)CN(C3CCC(=O)NC3=O)C4=O)cc(CN3CCC3)c21 (stereo not drawn) [Example 124, 3-(5-(7-(azetidin-1-ylmethyl)-1-ethyl-1H-pyrrolo[3,2-b]pyridin-5-yl)-1-oxoisoindolin-2-yl) piperidine-2,6-dione] | 1000 to 5000 | 1 to 10 | > 80 | 10 to 100 | 20 to 40 |
| O=C1CCC(N2Cc3cc(-c4cc(CN5CCC(O)CC5)c5cc[nH]c5n4)ccc3C2=O)C(=O)N1 (stereo not drawn) [Example 125, 3-(5-(4-((4-hydroxypiperidin-1-yl)methyl)-1H-pyrrolo[2,3-b]pyridin-6-yl)-1-oxoisoindolin-2-yl) piperidine-2,6-dione] | 100 to 500 | 10 to 100 | > 80 | 100 to 1000 | 20 to 40 |
| O=C1CCC(N2Cc3c(ccc(-c4cc(CN5CCCC5)c5cc[nH]c5n4)c3F)C2=O)C(=O)N1 (stereo not drawn) [Example 126, 3-(4-fluoro-1-oxo-5-(4-(pyrrolidin-1-ylmethyl)-1H-pyrrolo[2,3-b]pyridin-6-yl)isoindolin-2-yl) piperidine-2,6-dione] | 100 to 500 | < 1 | > 80 | 1 to 10 | 40 to 60 |
| O=C1CCC(N2Cc3cc(-c4cc(CN5CCC(F)C5)c5cc[nH]c5n4)ccc3C2=O)C(=O)N1 (stereo not drawn) [Example 127, 3-(5-(4-((3-fluoropyrrolidin-1-yl)methyl)-1H-pyrrolo[2,3-b]pyridin-6-yl)-1-oxoisoindolin-2-yl) piperidine-2,6-dione] | 100 to 500 | 1 to 10 | > 80 | 100 to 1000 | 20 to 40 |
| O=C1CCC(N2Cc3cc(-c4cc(CN5CCCC5)c5ccn(CCOCc6ccccc6)c5n4)ccc3C2=O)C(=O)N1 (stereo not drawn) [Example 130, 3-(5-(1-(2-(benzyloxy)ethyl)-4-(pyrrolidin-1-ylmethyl)-1H-pyrrolo[2,3-b]pyridin-6-yl)-1-oxoisoindolin-2-yl) piperidine-2,6-dione] | 100 to 500 | 1 to 10 | 40 to 60 | > 10000 | < 20 |
| O=C1CCC(N2Cc3cc(-c4cc(CN5CCCC5)c5ccn(CCO)c5n4)ccc3C2=O)C(=O)N1 (stereo not drawn) [Example 131, 3-(5-(1-(2-hydroxyethyl)-4-(pyrrolidin-1-ylmethyl)-1H-pyrrolo[2,3-b]pyridin-6-yl)-1-oxoisoindolin-2-yl) piperidine-2,6-dione] | 1000 to 5000 | 10 to 100 | 60 to 80 | > 10000 | < 20 |
| Cc1cc(-c2ccc3c(c2)CN(C2CCC(=O)NC2=O)C3=O)nc2c1CCN2CCO (stereo not drawn) [Example 132, 3-(5-(1-(2-hydroxyethyl)-4-methyl-2,3-dihydro-1H-pyrrolo[2,3-b]pyridin-6-yl)-1-oxoisoindolin-2-yl) piperidine-2,6-dione] | 5000 to 10000 | 10 to 100 | 40 to 60 | > 10000 | < 20 |
| N#CCn1ccc2c(CN3CCCC3)cc(-c3ccc4c(c3)CN(C3CCC(=O)NC3=O)C4=O)nc21 (stereo not drawn) [Example 133, 2-(6-(2-(2,6-dioxopiperidin-3-yl)-1-oxoisoindolin-5-yl)-4-(pyrrolidin-1-ylmethyl)-1H-pyrrolo[2,3-b]pyridin-1-yl) acetonitrile] | 100 to 500 | 1 to 10 | 60 to 80 | > 10000 | < 20 |
| O=C1CCC(N2Cc3cc(-c4cc(CN5CCCC5)c5ccn(-c6ccccc6)c5n4)ccc3C2=O)C(=O)N1 (stereo not drawn) [Example 139, 3-(1-oxo-5-(1-phenyl-4-(pyrrolidin-1-ylmethyl)-1H-pyrrolo[2,3-b]pyridin-6-yl)isoindolin-2-yl) piperidine-2,6-dione] | 500 to 1000 | 1 to 10 | 60 to 80 | 10 to 100 | 20 to 40 |
| CC(C)Cn1ccc2c(CN3CCCC3)cc(-c3ccc4c(c3)CN(C3CCC(=O)NC3=O)C4=O)nc21 (stereo not drawn) [Example 140, 3-(5-(1-isobutyl-4-(pyrrolidin-1-ylmethyl)-1H-pyrrolo[2,3-b]pyridin-6-yl)-1-oxoisoindolin-2-yl) piperidine-2,6-dione] | 100 to 500 | < 1 | 20 to 40 | > 10000 | < 20 |
| O=C1CCC(N2Cc3cc(-c4cc(CN5CCC(F)C5)c5ccn(C6CC6)c5n4)ccc3C2=O)C(=O)N1 (stereo not drawn) [Example 141, 3-(5-(1-cyclopropyl-4-((3-fluoropyrrolidin-1-yl)methyl)-1H-pyrrolo[2,3-b]pyridin-6-yl)-1-oxoisoindolin-2-yl) piperidine-2,6-dione] | 1000 to 5000 | 1 to 10 | > 80 | > 10000 | < 20 |
| O=C1CCC(N2Cc3cc(-c4cc(CN5CCC(O)C5)c5ccn(C6CC6)c5n4)ccc3C2=O)C(=O)N1 (stereo not drawn) [Example 142, 3-(5-(1-cyclopropyl-4-((3-hydroxypyrrolidin-1-yl)methyl)-1H-pyrrolo[2,3-b]pyridin-6-yl)-1-oxoisoindolin-2-yl) piperidine-2,6-dione] | 500 to 1000 | 1 to 10 | > 80 | > 10000 | < 20 |
| O=C1CCC(N2Cc3cc(-c4cc(CN5CC(F)C5)c5ccn(C6CC6)c5n4)ccc3C2=O)C(=O)N1 (stereo not drawn) [Example 143, 3-(5-(1-cyclopropyl-4-((3-fluoroazetidin-1-yl)methyl)-1H-pyrrolo[2,3-b]pyridin-6-yl)-1-oxoisoindolin-2-yl) piperidine-2,6-dione] | 1000 to 5000 | 1 to 10 | > 80 | > 10000 | < 20 |

— patent US20250214991A1 (Oncopia Therapeutics, Inc. d/b/a/ SK Life Science Labs, priority 2022, published 2025)
